Assay results from US5968791A, “Plant lysophosphatidic acid acyltransferases” (Calgene, Inc., priority 1995, dated 1999).

Experiments:
coconut LPAAT [1] = test: LPAAT activity assay, coconut P2 membrane preparation; type: biochemical, Cocos nucifera; details: coconut P2 preparation, same assay
Protocol: To assay for LPAAT activity, the sample is incubated with lysophosphatidic acid (LPA) and acyl-coenzyme A (acyl-CoA) substrates in buffered solution. The acyl substituents of the two substrates are chosen to correspond with the specificity of the enzyme being measured. […] LPAAT activity is measured as the amount of radioactive product formed in a given assay time. The PA product is radioactive as a result of the transferred radiolabeled acyl group at the central carbon atom of the molecule, and the quantity of PA formed may be determined by measuring radioactivity of the PA fraction. […]
To stop the assay, 0.25 ml of 1M KCl in 0.2M H3 PO4 is added to the vial. […] The total radioactivity extracted into the organic phase is determined by liquid scintillation counting; a 100 μl sample of the organic phase is transferred to a 20 ml scintillation vial and allowed to dry, and scintillation fluid (3-5 ml) is added to the vial. The radioactivity of the sample, after subtraction of the "minus-enzyme" or "minus-LPA" radioactivities, is taken as an approximate indication of the amount of PA formed in the LPAAT-catalyzed reaction and therefore of LPAAT activity. […]

coconut LPAAT [2] = target: T1, coconut LPAAT (Cocos nucifera, UniProt Q42670); test: as above; type: biochemical; parameters: white endosperm tissue lining the inside of the endocarp can be dissected and collected; from tissue; host or cells: immature coconut endosperm, P2 membrane fraction
T1 sequence (Q42670 1-308): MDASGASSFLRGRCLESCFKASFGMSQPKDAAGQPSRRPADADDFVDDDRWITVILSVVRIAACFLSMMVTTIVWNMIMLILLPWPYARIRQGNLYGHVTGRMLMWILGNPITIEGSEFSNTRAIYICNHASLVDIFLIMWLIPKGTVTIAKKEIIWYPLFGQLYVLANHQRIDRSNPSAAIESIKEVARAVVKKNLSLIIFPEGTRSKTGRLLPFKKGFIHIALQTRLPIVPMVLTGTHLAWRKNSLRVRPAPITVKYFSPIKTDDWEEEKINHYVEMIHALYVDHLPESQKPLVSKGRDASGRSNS
Protocol: (§1) To assay for LPAAT activity, the sample is incubated with lysophosphatidic acid (LPA) and acyl-coenzyme A (acyl-CoA) substrates in buffered solution. The acyl substituents of the two substrates are chosen to correspond with the specificity of the enzyme being measured. For example, to measure activity of an LPAAT having preference for medium-chain substrates, lauroyl-LPA (lauroyl-lysophosphatidic acid) and lauroyl-CoA may be used, to measure activity of an LPAAT preferring longer-chain acyl groups, oleoyl-LPA and oleoyl-CoA may be used, to measure activity of an LPAAT preferring very-long chain substrate, erucyl-LPA and erucyl-CoA may be used, and so on, depending upon the type of LPAAT to be tested. The acyl group of one substrate is radioactively labeled in order to detect the product formed. In the examples which follow the acyl substituent of the acyl-CoA substrate is radiolabeled with ^14 C in the carboxyl group. LPAAT activity results in transfer of this acyl group from the acyl-CoA "donor" substrate to the LPA "acceptor" substrate, converting the latter into the product, phosphatidic acid (PA). LPAAT activity is measured as the amount of radioactive product formed in a given assay time. The PA product is radioactive as a result of the transferred radiolabeled acyl group at the central carbon atom of the molecule, and the quantity of PA formed may be determined by measuring radioactivity of the PA fraction. For this measurement, the PA is first separated from the acyl-CoA substrate by solvent partitioning, or by thin-layer chromatography (TLC).
(§2) 20 μl of the sample to be assayed for LPAAT activity is mixed with 217.5 μl of an assay ingredient mixture in a 4-ml, screw-cap vial. […] The incubation takes place in a water bath at 30° C., for 20-30 minutes.
(§3) To stop the assay, 0.25 ml of 1M KCl in 0.2M H3 PO4 is added to the vial. At this point, 40 μl BSA (bovine serum albumin, fraction V) at 1 mg/ml are added, followed by 0.75 ml of a solution of 67 μg/ml unlabeled PA (acting as a "carrier" to facilitate partitioning) in chloroform/methanol (2:1, v/v). The chain lengths of the PA acyl groups are chosen to correspond to those used in the assay substrates. Upon thorough mixing of these components the radiolabeled PA product of the LPAAT reaction partitions into the organic phase and away from the unreacted acyl-CoA and LPA. The vial is centrifuged briefly at low speed to facilitate the separation of organic (lower) and aqueous (upper) phases. The aqueous phase is then removed and discarded. The total radioactivity extracted into the organic phase is determined by liquid scintillation counting; a 100 μl sample of the organic phase is transferred to a 20 ml scintillation vial and allowed to dry, and scintillation fluid (3-5 ml) is added to the vial. The radioactivity of the sample, after subtraction of the "minus-enzyme" or "minus-LPA" radioactivities, is taken as an approximate indication of the amount of PA formed in the LPAAT-catalyzed reaction and therefore of LPAAT activity.
A more accurate estimation of the LPAAT activity may be obtained by separating the PA product from these contaminants by TLC. The remaining organic phase is applied to a silica TLC plate. Ascending chromatography is carried out for 50 minutes, using the solvent mixture chloroform/pyridine/88% formic acid (50:30:7, v/v). After the plate has dried, the distribution of radioactivity is visualized and quantitated using an AMBIS radioanalytic imaging system (AMBIS Systems Inc., San Diego, Calif.). From prior application of standard lipid components the Rf of the PA is known. The radioactivity associated with the PA spot is expressed as a percentage of the total radioactivity of the assay sample loaded on the plate. This ratio provides an indication of the proportion of the scintillation counts which represent the PA product, and may be used to correct the counts to obtain the total PA radioactivity formed in the assay. […]

LPCAT = LPCAT assay, coconut P2 preparation; type: biochemical, Cocos nucifera; details: substrates 12:0-CoA+12:0-LPC
Excerpt: Lysophosphatidylcholine (LPC) acyltransferase (LPCAT) is an enzyme analogous to LPAAT, involved in the biosynthesis of membrane lipids (phosphatidylcholine and derivatives thereof) instead of storage oil. The possibility that the activity measured in the LPAAT assay is not true LPAAT, but rather an inefficient action of LPCAT on the LPAAT substrates, can be tested by direct assay for LPCAT. For example, the LPAAT activity of the coconut P2 preparation with the substrate combination 12:0-CoA+12:0-LPA is readily measurable, whereas the LPCAT activity of the same preparation with the substrates 12:0-CoA+12:0-LPC is undetectable. […] The activities on long-chain substrates may represent either a single acyltransferase enzyme able to use LPA and LPC acceptor substrates, or discrete "long-chain" LPAAT and LPCAT enzymes which are present together.

bay LPAAT = test: LPAAT activity assay, California bay P2 membrane preparation; type: biochemical, Umbellularia californica; details: P2 membrane preparation; acyl-CoA donor varied, acceptor 12:0-LPA
Protocol: To assay for LPAAT activity, the sample is incubated with lysophosphatidic acid (LPA) and acyl-coenzyme A (acyl-CoA) substrates in buffered solution. The acyl substituents of the two substrates are chosen to correspond with the specificity of the enzyme being measured. […] The acyl group of one substrate is radioactively labeled in order to detect the product formed. In the examples which follow the acyl substituent of the acyl-CoA substrate is radiolabeled with ^14 C in the carboxyl group. LPAAT activity results in transfer of this acyl group from the acyl-CoA "donor" substrate to the LPA "acceptor" substrate, converting the latter into the product, phosphatidic acid (PA). LPAAT activity is measured as the amount of radioactive product formed in a given assay time. The PA product is radioactive as a result of the transferred radiolabeled acyl group at the central carbon atom of the molecule, and the quantity of PA formed may be determined by measuring radioactivity of the PA fraction. For this measurement, the PA is first separated from the acyl-CoA substrate by solvent partitioning, or by thin-layer chromatography (TLC).

Rapeseed LPAAT = test: LPAAT activity assay, rapeseed P2 membrane preparation; type: biochemical, Brassica napus; details: acyl-CoA donor varied, acceptor 12:0-LPA
Protocol: as §1, §2, §3
A more accurate estimation of the LPAAT activity may be obtained by separating the PA product from these contaminants by TLC. The remaining organic phase is applied to a silica TLC plate. […] After the plate has dried, the distribution of radioactivity is visualized and quantitated using an AMBIS radioanalytic imaging system (AMBIS Systems Inc., San Diego, Calif.). From prior application of standard lipid components the Rf of the PA is known. The radioactivity associated with the PA spot is expressed as a percentage of the total radioactivity of the assay sample loaded on the plate. This ratio provides an indication of the proportion of the scintillation counts which represent the PA product, and may be used to correct the counts to obtain the total PA radioactivity formed in the assay.
A P2 membrane homogenate from immature embryos of developing rapeseed (Brassica napus) seeds is prepared essentially as described above, except as noted below.

control rapeseed LPAAT = test: LPAAT acyl-CoA specificity, control P2 preparation; type: biochemical; details: acyl-CoA donor varied at 5 μM, acceptor 12:0-LPA; 30 minute reaction
Protocol: (§4) Detailed acyl-CoA chain-length specificity analysis of control P2 preparations and LPAAT-transformed line 5511-5 were determined as described above, using the original 30 minute reaction time. The acyl-CoA substrates for this analysis are present in methanol, and thus the assay also had the following modifications. The first solution placed in the assay vial was the volume of each radiolabeled acyl-CoA required for 5 μM final assay concentration. […] After mixing to redissolve the acyl-CoA off the vial wall, the reaction is started by addition of 25 μl of a 5-fold diluted P2 preparation and continued as before. Acyl-CoA substrates used in this analysis were 8:0, 10:0, 12:0, 14:0, 16:0, 18:0, and 18:1. The acceptor substrate in these assays was 12:0-LPA.

coconut LPAAT [3] = target: T1, coconut LPAAT; test: Acyl-CoA specificity of coconut LPAAT expressed in E. coli (pCGN5505), membrane fractions; type: biochemical; parameters: the SalI/BamHI fragment of pCGN5504 containing the entire coconut LPAAT encoding region; made in house; host or cells: E. coli BL21(DE3), membrane fractions; details: acceptor 12:0-LPA
Protocol: The samples are centrifuged at 12,000 g for 15 minutes. The resulting supernatant fractions are centrifuged for two hours at 134,000 g, and the pelleted membranes suspended in 50 mM HEPES, 200 mM NaCl, 20% (w/v) glycerol, 5 mM β-mercaptoethanol, pH 7.5. Membrane fractions are assayed for acyl-CoA substrate specificities with 12:0-LPA and various acyl-CoA species as described in Example 1. Membrane preparations from cultures of E. coli and from immature coconut endosperm are combined with soybean phospholipids and diluted in 1M NaCl in Buffer A to simulate the pre-assay conditions of the solubilized enzyme.

[4] = target: T2, LPAAT of transformant 5511-5 (Cocos nucifera, UniProt Q42670); test: LPAAT acyl-CoA specificity, P2 preparation of LPAAT-transformed line 5511-5; type: biochemical, Rapeseed; details: acyl-CoA donor varied at 5 μM, acceptor 12:0-LPA; 30 minute reaction
T2 construct: crude P2 membranes, host LPAAT also present
T2 sequence (Q42670 1-308): T1 sequence (Q42670 1-308)
Protocol: as §4

12:0-ACP: 12:0 acyl-ACP tested as LPAAT donor substrate
hydrolysis by the P2 preparation (coconut LPAAT [1]): not hydrolyzed | utilization as LPAAT donor substrate instead of 12:0-CoA (coconut LPAAT [2]; coconut P2 preparation): will not utilize

CCCCCCCCCCCC(=O)OCC(O)COP(=O)([O-])OCC[N+](C)(C)C (stereo not drawn) [12:0-LPC, lauroyl-lysophosphatidylcholine]
LPCAT activity (LPCAT): undetectable

CCCCCCCCCCCCCCCCCC(=O)SCCNC(=O)CCNC(=O)[C@H](O)C(C)(C)COP(=O)(O)OP(=O)(O)OC[C@H]1O[C@@H](n2cnc3c(N)ncnc32)[C@H](O)[C@@H]1OP(=O)(O)O [18:0]
LPAAT Activity from Bay (bay LPAAT): 6 pmol PA formed/30 min assay | LPAAT Activity from Coconut (coconut LPAAT [2]; P2 membrane preparation, acyl-CoA donor varied, acceptor 12:0-LPA): 13 pmol PA formed/30 min assay | LPAAT Activity from Rapeseed (Rapeseed LPAAT): 21 pmol PA formed/30 min assay | Cpm PA Product, Control (control rapeseed LPAAT): 1514 Cpm | utilization by E. coli expressed coconut LPAAT (coconut LPAAT [3]): less well utilized | Cpm PA Product, 5511-5 [4]: 2038 Cpm
